# Data reported in the supplement of paper PMC10307832.
# Assays:
# Test in all cases: relative viability (nuclei count vs DMSO), 5 days (fraction); higher = more cells survive
# [1] = test system: IA-LM
# How it was run: (§1)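 Nuclei were stained with Hoechst during a one-step fixation (final 0.05% Triton X-100, 1% formaldehyde, 1 ug/ml Hoechst) carried out 5 days after dosing, then counted on 4× images. The cells, lung cancer lines in 1536-well plates, had been dosed by pin tool the day after seeding with one drug alone or a fixed anchor-drug dose plus five library-drug doses (not always all listed) in √10 steps. Relative viability is the nuclei count in treated wells divided by that in vehicle wells, and each value is the median of duplicate plates.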
# [2] = test system: NCI-H1623
# How it was run: as §1
# [3] = test system: A549
# How it was run: as §1
# [4] = test system: RERF-LC-KJ
# How it was run: as §1
# [5] = test system: NCI-H2126
# How it was run: as §1
# [6] = test system: EBC-1
# How it was run: as §1
# [7] = test system: Calu-6
# How it was run: as §1
# [8] = test system: NCI-H1993
# How it was run: as §1
# [9] = test system: NCI-H1299
# How it was run: as §1
# [10] = test system: ABC-1
# How it was run: as §1
# [11] = test system: NCI-H2085
# How it was run: as §1
# [12] = test system: NCI-H1703
# How it was run: as §1
# [13] = test system: EKVX
# How it was run: as §1
smiles,measurement,setting,value
Cc1sc2c(c1C)C(c1ccc(Cl)cc1)=N[C@@H](CC(=O)OC(C)(C)C)c1nnc(C)n1-2 [JQ1] + COc1cc2c(Oc3ccc(NC(=O)C4(C(=O)Nc5ccc(F)cc5)CC4)cc3F)ccnc2cc1OCCCN1CCOCC1 [Foretinib] (partner 0.25 µM),relative viability,[1]; first compound 0.04 µM,0.943
same,relative viability,[1]; first compound 0.1265 µM,0.645
same,relative viability,[1]; first compound 0.4 µM,0.224
same,relative viability,[1]; first compound 1.265 µM,0.0743
same,relative viability,[1]; first compound 4 µM,0.0831
same,relative viability,[2]; first compound 0.04 µM,0.878
same,relative viability,[2]; first compound 0.1265 µM,0.809
same,relative viability,[2]; first compound 0.4 µM,0.716
same,relative viability,[2]; first compound 1.265 µM,0.496
same,relative viability,[2]; first compound 4 µM,0.441
same,relative viability,[3]; first compound 0.04 µM,0.881
same,relative viability,[3]; first compound 0.1265 µM,0.76
same,relative viability,[3]; first compound 0.4 µM,0.878
same,relative viability,[3]; first compound 1.265 µM,0.32
same,relative viability,[3]; first compound 4 µM,0.194
same,relative viability,[4]; first compound 0.04 µM,0.939
same,relative viability,[4]; first compound 0.1265 µM,0.88
same,relative viability,[4]; first compound 0.4 µM,0.942
same,relative viability,[4]; first compound 1.265 µM,0.748
same,relative viability,[4]; first compound 4 µM,0.555
same,relative viability,[5]; first compound 0.04 µM,1.22
same,relative viability,[5]; first compound 0.1265 µM,1.15
same,relative viability,[5]; first compound 0.4 µM,1.03
same,relative viability,[5]; first compound 1.265 µM,0.655
same,relative viability,[5]; first compound 4 µM,0.693
same,relative viability,[6]; first compound 0.04 µM,0.098
same,relative viability,[6]; first compound 0.1265 µM,0.0891
same,relative viability,[6]; first compound 0.4 µM,0.0572
same,relative viability,[6]; first compound 1.265 µM,0.0617
same,relative viability,[6]; first compound 4 µM,0.0624
same,relative viability,[7]; first compound 0.04 µM,0.848
same,relative viability,[7]; first compound 0.1265 µM,0.79
same,relative viability,[7]; first compound 0.4 µM,0.756
same,relative viability,[7]; first compound 1.265 µM,0.478
same,relative viability,[7]; first compound 4 µM,0.406
same,relative viability,[8]; first compound 0.04 µM,0.794
same,relative viability,[8]; first compound 0.1265 µM,0.794
same,relative viability,[8]; first compound 0.4 µM,0.682
same,relative viability,[8]; first compound 1.265 µM,0.692
same,relative viability,[8]; first compound 4 µM,0.738
same,relative viability,[9]; first compound 0.04 µM,1.03
same,relative viability,[9]; first compound 0.1265 µM,0.947
same,relative viability,[9]; first compound 0.4 µM,0.819
same,relative viability,[9]; first compound 1.265 µM,0.558
same,relative viability,[9]; first compound 4 µM,0.34
same,relative viability,[10]; first compound 0.04 µM,0.916
same,relative viability,[10]; first compound 0.1265 µM,0.859
same,relative viability,[10]; first compound 0.4 µM,0.89
same,relative viability,[10]; first compound 1.265 µM,0.395
same,relative viability,[10]; first compound 4 µM,0.399
same,relative viability,[11]; first compound 0.04 µM,0.855
same,relative viability,[11]; first compound 0.1265 µM,0.821
same,relative viability,[11]; first compound 0.4 µM,0.578
same,relative viability,[11]; first compound 1.265 µM,0.428
same,relative viability,[11]; first compound 4 µM,0.37
same,relative viability,[12]; first compound 0.04 µM,0.298
same,relative viability,[12]; first compound 0.1265 µM,0.284
same,relative viability,[12]; first compound 0.4 µM,0.313
same,relative viability,[12]; first compound 1.265 µM,0.318
same,relative viability,[12]; first compound 4 µM,0.332
same,relative viability,[13]; first compound 0.04 µM,0.881
same,relative viability,[13]; first compound 0.1265 µM,0.448
same,relative viability,[13]; first compound 0.4 µM,0.787
same,relative viability,[13]; first compound 1.265 µM,0.655
same,relative viability,[13]; first compound 4 µM,0.512
COc1cc2nccc(Oc3ccc(NC(=O)Nc4cc(C)on4)c(Cl)c3)c2cc1OC [Tivozanib] + COc1cc2c(Oc3ccc(NC(=O)C4(C(=O)Nc5ccc(F)cc5)CC4)cc3F)ccnc2cc1OCCCN1CCOCC1 [Foretinib] (partner 0.25 µM),relative viability,[1]; first compound 0.005 µM,1.21
same,relative viability,[1]; first compound 0.01581 µM,1.15
same,relative viability,[1]; first compound 0.05 µM,1.24
same,relative viability,[1]; first compound 0.1581 µM,1.32
same,relative viability,[1]; first compound 0.5 µM,0.94
same,relative viability,[2]; first compound 0.005 µM,0.821
same,relative viability,[2]; first compound 0.01581 µM,0.989
same,relative viability,[2]; first compound 0.05 µM,0.938
same,relative viability,[2]; first compound 0.1581 µM,0.888
same,relative viability,[2]; first compound 0.5 µM,0.914
same,relative viability,[3]; first compound 0.005 µM,0.804
same,relative viability,[3]; first compound 0.01581 µM,0.987
same,relative viability,[3]; first compound 0.05 µM,1.01
same,relative viability,[3]; first compound 0.1581 µM,0.976
same,relative viability,[3]; first compound 0.5 µM,1.04
same,relative viability,[4]; first compound 0.005 µM,0.821
same,relative viability,[4]; first compound 0.01581 µM,0.79
same,relative viability,[4]; first compound 0.05 µM,0.849
same,relative viability,[4]; first compound 0.1581 µM,0.919
same,relative viability,[4]; first compound 0.5 µM,0.863
same,relative viability,[5]; first compound 0.005 µM,1.24
same,relative viability,[5]; first compound 0.01581 µM,1.11
same,relative viability,[5]; first compound 0.05 µM,1.18
same,relative viability,[5]; first compound 0.5 µM,1.25
same,relative viability,[6]; first compound 0.005 µM,0.103
same,relative viability,[6]; first compound 0.01581 µM,0.104
same,relative viability,[6]; first compound 0.05 µM,0.11
same,relative viability,[6]; first compound 0.1581 µM,0.0953
same,relative viability,[6]; first compound 0.5 µM,0.0941
same,relative viability,[7]; first compound 0.005 µM,0.896
same,relative viability,[7]; first compound 0.01581 µM,0.845
same,relative viability,[7]; first compound 0.05 µM,0.929
same,relative viability,[7]; first compound 0.1581 µM,0.824
same,relative viability,[7]; first compound 0.5 µM,0.876
same,relative viability,[8]; first compound 0.005 µM,0.632
same,relative viability,[8]; first compound 0.01581 µM,0.712
same,relative viability,[8]; first compound 0.05 µM,0.757
same,relative viability,[8]; first compound 0.1581 µM,0.733
same,relative viability,[8]; first compound 0.5 µM,0.722
same,relative viability,[9]; first compound 0.005 µM,1.05
same,relative viability,[9]; first compound 0.01581 µM,1.09
same,relative viability,[9]; first compound 0.05 µM,1.11
same,relative viability,[9]; first compound 0.1581 µM,1.18
same,relative viability,[9]; first compound 0.5 µM,1.04
same,relative viability,[10]; first compound 0.005 µM,1.01
same,relative viability,[10]; first compound 0.01581 µM,1.21
same,relative viability,[10]; first compound 0.05 µM,1
same,relative viability,[10]; first compound 0.1581 µM,1.06
same,relative viability,[10]; first compound 0.5 µM,1.02
same,relative viability,[11]; first compound 0.005 µM,0.883
same,relative viability,[11]; first compound 0.01581 µM,0.884
same,relative viability,[11]; first compound 0.05 µM,0.831
same,relative viability,[11]; first compound 0.1581 µM,1.02
same,relative viability,[11]; first compound 0.5 µM,1.01
same,relative viability,[12]; first compound 0.005 µM,0.335
same,relative viability,[12]; first compound 0.01581 µM,0.385
same,relative viability,[12]; first compound 0.05 µM,0.384
same,relative viability,[12]; first compound 0.1581 µM,0.33
same,relative viability,[12]; first compound 0.5 µM,0.405
same,relative viability,[13]; first compound 0.005 µM,0.695
same,relative viability,[13]; first compound 0.01581 µM,0.891
same,relative viability,[13]; first compound 0.05 µM,0.84
same,relative viability,[13]; first compound 0.1581 µM,0.456
same,relative viability,[13]; first compound 0.5 µM,0.786
